Source: US8716236B2, “Inhibitors of IAP” (Genentech, Inc., priority 2012, dated 2014)

Test system: human breast MDA-MB-231•X1 cells
Test: Tumor xenograft study
Format: in vivo, mouse
Conditions: MDA-MB-231•X1 xenograft in female nude mice, iv Qwk
Protocol: All procedures involving animals were performed in accordance with the guidelines of the Genentech Institutional Animal Care and Use Committee. Cancer cells such as Human breast MDA-MB-231, colorectal, Colo205, or NSCLC, Calu6 cancer cells were obtained from American Type Culture Collection (Manassas, Va.). Cells were resuspended in HBSS (Colo205) or the cell suspension was mixed 1:1 with Matrigel (BD Biosciences; MDA-MB-231, Calu6). The cells (1.5×10^7 for MDA-MB-231; 5.0×10^7 for Colo205, Calu6) were then implanted subcutaneously into the right flank of female nude mice (Charles River Laboratories, Hollister, Calif.) aged 6-8 weeks. Tumor volumes were calculated using the mean diameter measured with vernier calipers using the formula v=0.5×a×b^2, were a and b are the largest and smallest perpendicular tumor diameters, respectively. Ten mice with the appropriate mean tumor volume were assigned randomly to each of six groups. The mean tumor volume±the standard error of the mean (SEM) for all six groups was 168±3 mm^3 at the initiation of treatment (Day 0). The mice were observed on each day of the study, and tumor volumes and body weights were measured twice each week.

Row | Compound | MED
1 | CN[C@@H](C)C(=O)N[C@H](C(=O)N1CCCC1C(=O)Nc1snnc1-c1ccccc1)C1CCCCC1 (some centres unmarked) [III] | 18.6 mg/kg
2 | CN[C@@H](C)C(=O)N[C@H](C(=O)N1CCC[C@H]1C(=O)Nc1sc(-c2ncco2)nc1-c1ccccc1)C1CCCCC1 [Ia, (S)-1-[(S)-2-cyclohexyl-2-((S)-2-methylamino-propionylamino)-acetyl]-pyrrolidine-2-carboxylic acid (2-oxazol-2-yl-4-phenyl-thiazol-5-yl)-amide] | 3.4 mg/kg
